Measurements as given in the NIST ThermoML archive (doi:10.1021/je060228n).

Legend:
[1] = refractive index (Na D-line) (dimensionless); conditions: 101.33 kPa, Liquid
[2] = for surface tension liquid-gas: Drop weight; for mass density / speed of sound / viscosity: 101.33 kPa, Liquid
[3] = xn = mol fraction of the nth substance listed; conditions: 101 kPa, Liquid
[4] = refractive index (Na D-line) (dimensionless); xn = mol fraction of the nth substance listed; conditions: 298.15 K, 101 kPa, Liquid

CCOS(=O)(=O)[O-].CCn1cc[n+](C)c1 [1-ethyl-3-methylimidazolium ethyl sulfate]
Conditions	mass density, [2] [kg/m3]	refractive index, [1]	speed of sound, [2] [m/s]	surface tension liquid-gas, [2] [mN/m]	viscosity, [2] [mPa·s]
288.15 K	1244.46	1.48197	1703.9	47.91	–
293.15 K	1241	1.48072	1691.4	47.39	–
298.15 K	1237.63	1.4794	1679	46.96	97.58
303.15 K	1234.25	1.47803	1666.6	46.58	76.67
308.15 K	1230.88	1.47669	1654	46.23	61.71
313.15 K	1227.51	1.47535	1641.6	45.84	50.01
318.15 K	1224.15	1.47397	1629.2	–	41.37
323.15 K	1220.8	1.47259	1616.8	–	34.46
328.15 K	1217.47	1.47124	1604.5	–	29.18
333.15 K	1214.31	1.46989	1591.3	–	24.96
338.15 K	1210.82	1.46851	1578.9	–	21.45
343.15 K	1207.51	1.46718	1566.4	–	18.72

CCOS(=O)(=O)[O-].CCn1cc[n+](C)c1 [1-ethyl-3-methylimidazolium ethyl sulfate] + CCO
[3]
Conditions	mass density, 298.15 K [kg/m3]	mass density, 313.15 K [kg/m3]	mass density, 328.15 K [kg/m3]	speed of sound, 298.15 K [m/s]	speed of sound, 313.15 K [m/s]	speed of sound, 328.15 K [m/s]	viscosity, 298.15 K [mPa·s]	viscosity, 313.15 K [mPa·s]	viscosity, 328.15 K [mPa·s]
x2 = 0	1237.63	1227.51	1217.47	1679	1641.6	1604.5	97.58	50.01	29.18
x2 = 0.0623	1228.9	1218.87	1208.77	1669.8	1633.6	1594.8	79.12	42.18	25.36
x2 = 0.23	1201.26	1191.17	1181.01	1626.6	1590.1	1551	44.93	26.19	16.84
x2 = 0.4113	1161.68	1151.32	1140.94	1564	1527.7	1488.2	22.96	14.72	10.14
x2 = 0.5393	1123.63	1113	1102.3	1506.5	1459.1	1431.1	13.58	8.577	6.204
x2 = 0.6788	1066.7	1055.7	1044.7	1428.8	1381	1350.7	7.224	5.208	3.934
x2 = 0.7662	1017.9	1006.6	995.2	1367.2	1318.9	1286.7	4.598	3.413	2.642
x2 = 0.8303	973	961.3	949.6	1315.6	1266.2	1232.2	3.178	2.398	1.874
x2 = 0.9554	848.6	836.2	823.5	1195.9	1143.3	1102.6	1.573	1.2	0.941
x2 = 0.964	837.4	824.7	812	1186.2	1132.7	1091.4	1.427	1.095	0.862
x2 = 0.9863	806.1	793.4	780.3	1160.7	1106.2	1063.1	1.271	0.971	0.759

[4]
Conditions	refractive index
x2 = 0	1.4794
x2 = 0.0623	1.47717
x2 = 0.23	1.47031
x2 = 0.4113	1.46017
x2 = 0.5393	1.45018
x2 = 0.6788	1.43532
x2 = 0.7662	1.42247
x2 = 0.8303	1.41052
x2 = 0.9554	1.37687
x2 = 0.964	1.37373
x2 = 0.9863	1.36514
